# Test results as given in patent US6380198B1 (Laboratoire Medidom S.A., priority 1997, dated 2002).
# Values joined by “and” are separate entries in the source; they are usually repeats but may differ in a detail not shown here. Equal values may be shown once.
# Key:
# [1] = system: intraocular pressure of rabbits showing normal baseline intraocular pressure; assay: Intraocular pressure in rabbits with normal intraocular pressure after topical instillation; assay type: in vivo, rabbit (Vienna Blue, pigmented); details: for Intraocular pressure (mmHg) at the time (min): 30, average ± S.D. / Intraocular pressure (mmHg) at the time (min): 60, average ± S.D. / Intraocular pressure (mmHg) at the time (min): 90, average ± S.D. / Intraocular pressure (mmHg) at the time (min): 120, average ± S.D. / Intraocular pressure (mmHg) at the time (min): 180, average ± S.D. / Intraocular pressure (mmHg) at the time (min): 240, average ± S.D. / Intraocular pressure (mmHg) at the time (min): 0, average ± S.D. / Intraocular pressure (mmHg) at the time (min): 30 / Intraocular pressure (mmHg) at the time (min): 60 / Intraocular pressure (mmHg) at the time (min): 90 / Intraocular pressure (mmHg) at the time (min): 120 / Intraocular pressure (mmHg) at the time (min): 180 / Intraocular pressure (mmHg) at the time (min): 240 / Intraocular pressure (mmHg) at the time (min): 0: Table 1, 50 μl eye-drops: 0.050% flunarizine, 0.056% verapamil, 0.051% diltiazem, 0.043% nifedipine; for Intraocular pressure (mmHg) at the time (min): 30, average ± S.D. / Intraocular pressure (mmHg) at the time (min): 60, average ± S.D. / Intraocular pressure (mmHg) at the time (min): 90, average ± S.D. / Intraocular pressure (mmHg) at the time (min): 120, average ± S.D. / Intraocular pressure (mmHg) at the time (min): 180, average ± S.D. / Intraocular pressure (mmHg) at the time (min): 240, average ± S.D. / Intraocular pressure (mmHg) at the time (min): 0, average ± S.D.: average ± S.D. of 4 rabbits; for Intraocular pressure (mmHg) at the time (min): 30, average ± S.D. / Intraocular pressure (mmHg) at the time (min): 30: 30 min after instillation; for Intraocular pressure (mmHg) at the time (min): 60, average ± S.D. / Intraocular pressure (mmHg) at the time (min): 60: 60 min after instillation; for Intraocular pressure (mmHg) at the time (min): 90, average ± S.D. / Intraocular pressure (mmHg) at the time (min): 90: 90 min after instillation; for Intraocular pressure (mmHg) at the time (min): 120, average ± S.D. / Intraocular pressure (mmHg) at the time (min): 120: 120 min after instillation; for Intraocular pressure (mmHg) at the time (min): 180, average ± S.D. / Intraocular pressure (mmHg) at the time (min): 180: 180 min after instillation; for Intraocular pressure (mmHg) at the time (min): 240, average ± S.D. / Intraocular pressure (mmHg) at the time (min): 240: 240 min after instillation; for Intraocular pressure (mmHg) at the time (min): 0, average ± S.D. / Intraocular pressure (mmHg) at the time (min): 0: time 0 = 15 min before instillation (baseline); for Intraocular pressure (mmHg) at the time (min): 30 / Intraocular pressure (mmHg) at the time (min): 60 / Intraocular pressure (mmHg) at the time (min): 90 / Intraocular pressure (mmHg) at the time (min): 120 / Intraocular pressure (mmHg) at the time (min): 180 / Intraocular pressure (mmHg) at the time (min): 240 / Intraocular pressure (mmHg) at the time (min): 0: individual rabbit, right eye
# Method: The effects of the agent of the invention on the intraocular pressure of rabbits showing normal baseline intraocular pressure were evaluated in comparison with the action of a placebo, and with that of various other calcium channel blocking agents. Female pigmented rabbits of the Vienna Blue strain were used (supplied by Charles River Italiana, of Calco (CO)). The age of the animals at the time of starting the experimentation was 9 weeks, and their weight was 2.0-2.5 kg.
# The choice of a species with pigmented iris is due to the fact that the latter represents a reliable model for the evaluation of possible modifications of the intraocular pressure caused by the products under test. The strain chosen is genetically defined, so as to limit to a minimum the variability of the biological characteristics between one animal and the other.
# The animals were kept in rooms maintained under constant and controlled conditions of temperature and humidity, illuminated for 12 hours a day with artificial light and with continuous renovation of the air. The feed consisted of a standard diet having a constant and known composition, and both feed and water were available ad libitum during the whole period of the test. The rabbits were stabled for 21 days before starting the test, so as to allow a sufficient acclimatation and to suitably evaluate the health conditions of the rabbits. Each experimental group consisted of 4 animals, which were allotted to the treatment groups in a randomised way.
# Each different group of animals received, by instillation in the right conjunctival fornix, 50 μl of the following products:
# The weight concentrations of the various agents under test are chosen so as to correspond to the same molar concentration.
# The pressure in the treated eye was measured by flattening tonometer (TonopenXL®, Mentor), 15 minutes before the instillation of the eyerops (time 0) and then 30, 60, 90, 120, 180 and 240 minutes after. As a local anaesthetic, 5 minutes before carrying out each measurement 25 μl of a commercial ophthalmic solution containing 0.4% oxybuprocaine hydrochloride (Novesine®, Sandoz) was instilled. To carry out the measurement the rabbits were placed in a suitably designed cage, that prevents any sudden movement of the animal under test.
# For each animal and at each of the times listed above the average of three subsequent measurements was calculated and recorded, each one said measurements being made after 1 minute from the previous one. The intraocular pressure values at the various times were compared with the values obtained before the treatment, by means of the Student's “t” test. The comparisons between different groups were made by processing the data by the variance analysis (ANOVA) and, where possible, by the Student's “t” test for the comparison of two different experimental groups. Values of p<0.05 were considered to be statistically significant.
# [2] = system: intraocular pressure of rabbits with ocular hypertension; assay: Intraocular pressure in rabbits with ocular hypertension induced by α-chymotrypsin; assay type: in vivo, rabbit (Vienna Blue, pigmented); details: for Intraocular pressure (mmHg) at the time (min): 30, average ± S.D. / Intraocular pressure (mmHg) at the time (min): 60, average ± S.D. / Intraocular pressure (mmHg) at the time (min): 90, average ± S.D. / Intraocular pressure (mmHg) at the time (min): 120, average ± S.D. / Intraocular pressure (mmHg) at the time (min): 180, average ± S.D. / Intraocular pressure (mmHg) at the time (min): 240, average ± S.D. / Intraocular pressure (mmHg) at the time (min): 0, average ± S.D. / Intraocular pressure (mmHg) at the time (min): 30 / Intraocular pressure (mmHg) at the time (min): 60 / Intraocular pressure (mmHg) at the time (min): 90 / Intraocular pressure (mmHg) at the time (min): 120 / Intraocular pressure (mmHg) at the time (min): 180 / Intraocular pressure (mmHg) at the time (min): 240 / Intraocular pressure (mmHg) at the time (min): 0: Table 3, hypertensive rabbits, 50 μl eye-drops: 0.050% flunarizine, 0.056% verapamil, 0.051% diltiazem, 0.043% nifedipine; for Intraocular pressure (mmHg) at the time (min): 30, average ± S.D. / Intraocular pressure (mmHg) at the time (min): 60, average ± S.D. / Intraocular pressure (mmHg) at the time (min): 90, average ± S.D. / Intraocular pressure (mmHg) at the time (min): 120, average ± S.D. / Intraocular pressure (mmHg) at the time (min): 180, average ± S.D. / Intraocular pressure (mmHg) at the time (min): 240, average ± S.D. / Intraocular pressure (mmHg) at the time (min): 0, average ± S.D.: average ± S.D. of 4 rabbits; for Intraocular pressure (mmHg) at the time (min): 30, average ± S.D. / Intraocular pressure (mmHg) at the time (min): 30: 30 min after instillation; for Intraocular pressure (mmHg) at the time (min): 60, average ± S.D. / Intraocular pressure (mmHg) at the time (min): 60: 60 min after instillation; for Intraocular pressure (mmHg) at the time (min): 90, average ± S.D. / Intraocular pressure (mmHg) at the time (min): 90: 90 min after instillation; for Intraocular pressure (mmHg) at the time (min): 120, average ± S.D. / Intraocular pressure (mmHg) at the time (min): 120: 120 min after instillation; for Intraocular pressure (mmHg) at the time (min): 180, average ± S.D. / Intraocular pressure (mmHg) at the time (min): 180: 180 min after instillation; for Intraocular pressure (mmHg) at the time (min): 240, average ± S.D. / Intraocular pressure (mmHg) at the time (min): 240: 240 min after instillation; for Intraocular pressure (mmHg) at the time (min): 0, average ± S.D. / Intraocular pressure (mmHg) at the time (min): 0: time 0 = 15 min before instillation (baseline); for Intraocular pressure (mmHg) at the time (min): 30 / Intraocular pressure (mmHg) at the time (min): 60 / Intraocular pressure (mmHg) at the time (min): 90 / Intraocular pressure (mmHg) at the time (min): 120 / Intraocular pressure (mmHg) at the time (min): 180 / Intraocular pressure (mmHg) at the time (min): 240 / Intraocular pressure (mmHg) at the time (min): 0: individual rabbit, right eye
# Method: Rabbits of the same type as those described in the previous section were used for the following tests.
# In the rabbit, the injection of this enzyme in the posterior chamber causes, after one month from the administration, an effect of ocular hypertension.
# At the end of the quarantine period the rabbits were anaesthetised by intramuscular administration of ketamine hydrochloride and xylazine hydrochloride (RBI). The right eye was gently pushed outwardly after instilling 25 μl of Novesine® eye-drops, containing oxybuprocaine as an anaesthetic; then, a sterile solution of σ-chymotrypsin (SIGMA, Milan; 150 units in 100 μl of physiologic sterile solution) was injected in the posterior chamber of the right eye by means of a 30G sterile needle. After the administration of the enzyme, the eye was thoroughly washed with physiologic sterile solution in order to remove any traces of α-chymotrypsin which could damage the ocular tissues. Then, 2 drops of a commercial ophthalmic antibiotic solution (Colbiocin®, SIFI S.p.A., containing chloramphenicol, rolitetracycline, colistin methanesulphonate) were instilled. The treatment was carried out 3 times a day (at 8.00 a.m., 12.00 a.m. and 6.00 p.m.) for one week after the administration of α-chymotrypsin. The rabbits were employed in the tests after one month from the induction of ocular hypertension by means of the enzyme.
# The rabbits, divided also in this case in groups of 4 animals, were treated by instillation of 50 μl of the product under test in the right conjunctival fornix.
# The intraocular pressure in the treated eye was measured, according to the same procedure as in the previous tests, 15 minutes before the instillation of the eye-drops and 30, 60, 90, 120, 180 and 240 minutes after. The values obtained were statistically analysed according to the criteria mentioned in the foregoing.
# The experimental conditions were exactly the same as before.
# σ-1 receptors = target: T1, σ-1 receptors (Oryctolagus cuniculus, UniProt G1SD54); assay: Inhibition of 3H(+)-N-allyl-nor-methazocine binding to irido-ciliary body membranes; set-up: species or system rabbit (New Zealand albino); details: rabbit irido-ciliary body P2 membranes, 300 μg protein, 37° C., 150 minutes, duplicate
# T1 construct: cell membranes obtained from the irido-ciliary body complex; from tissue; host or cells: rabbit irido-ciliary body, P2 membrane fraction
# Method: The receptor binding technique was carried out on cell membranes obtained from the irido-ciliary body complex explanted, after sacrifice, from male albino rabbits of the New Zealand strain (Charles River Italiana, of Calco (CO)). The tissue was homogenised in buffer and the P2, fraction, rich in cell membrane proteins, was isolated. […] The La total protein concentration was determined with the Lowry method.
# The non specific binding was evaluated in presence of haloperidol.
# All tests were carried out in duplicate. The reaction was maintained at 37° C. for 150 minutes, followed by filtration on WhatmannGF/B filters. The radioactivity left on the filters was measured by liquid scintillation spectrometry.
# intraocular pressure = details: Payene et al. 1990; cited from earlier work
# [3] = system: cornea (corneal thickness); details: rabbit, in vivo
# Method: The evaluation of the thickness of the cornea was carried out ecographically by means of a UBM System 840 (Humphrey Instruments, San Leandro, Calif., USA). […] The software incorporated allows to modify the focalisation depth of the ultrasound beam, and to capture the image while varying its amplification.
# The animals employed in this test were of the same type as those described in the foregoing, and were treated in the same way. The test was carried out, after having anaesthetised the animal (with ketamine hydrochloride and xylazine hydrochloride), by placing into contact with the eyeball tiny cups filled in with a coupling means (ultrasound gel).
# [4] = 50 μl eye-drops, 0.050% flunarizine, equimolar comparators, 0.5% timolol
# T1 sequence (G1SD54 1-223): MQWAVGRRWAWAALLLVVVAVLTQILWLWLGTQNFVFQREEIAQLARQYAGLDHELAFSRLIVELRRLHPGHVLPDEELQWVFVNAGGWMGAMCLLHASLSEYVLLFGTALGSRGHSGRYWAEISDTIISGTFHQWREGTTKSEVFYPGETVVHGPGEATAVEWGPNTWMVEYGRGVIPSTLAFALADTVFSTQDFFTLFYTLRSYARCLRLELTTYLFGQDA
SMILES,"Intraocular pressure (mmHg) at the time (min): 30, average ± S.D. [1]","Intraocular pressure (mmHg) at the time (min): 60, average ± S.D. [1]","Intraocular pressure (mmHg) at the time (min): 90, average ± S.D. [1]","Intraocular pressure (mmHg) at the time (min): 120, average ± S.D. [1]","Intraocular pressure (mmHg) at the time (min): 180, average ± S.D. [1]","Intraocular pressure (mmHg) at the time (min): 240, average ± S.D. [1]","Intraocular pressure (mmHg) at the time (min): 0, average ± S.D. [1]",Intraocular pressure (mmHg) at the time (min): 30 [1],Intraocular pressure (mmHg) at the time (min): 60 [1],Intraocular pressure (mmHg) at the time (min): 90 [1],Intraocular pressure (mmHg) at the time (min): 120 [1],Intraocular pressure (mmHg) at the time (min): 180 [1],Intraocular pressure (mmHg) at the time (min): 240 [1],Intraocular pressure (mmHg) at the time (min): 0 [1],"Intraocular pressure (mmHg) at the time (min): 30, average ± S.D. [2]","Intraocular pressure (mmHg) at the time (min): 60, average ± S.D. [2]","Intraocular pressure (mmHg) at the time (min): 90, average ± S.D. [2]","Intraocular pressure (mmHg) at the time (min): 120, average ± S.D. [2]","Intraocular pressure (mmHg) at the time (min): 180, average ± S.D. [2]","Intraocular pressure (mmHg) at the time (min): 240, average ± S.D. [2]",also measured
COc1ccc([C@@H]2Sc3ccccc3N(CCN(C)C)C(=O)[C@@H]2OC(C)=O)cc1 [diltiazem],15.2 ± 1.2 mmHg,14.7 ± 0.9 mmHg,14.7 ± 0.9 mmHg,15 ± 0.5 mmHg,16.2 ± 0.95 mmHg,16 ± 0.6 mmHg,16.7 ± 1.5 mmHg,14 mmHg and 15 mmHg (2×) and 17 mmHg,14 mmHg (2×) and 17 mmHg and 13 mmHg,14 mmHg (2×) and 16 mmHg and 15 mmHg,15 mmHg (2×) and 16 mmHg (2×),15 mmHg and 16 mmHg and 17 mmHg (2×),16 mmHg (2×) and 17 mmHg (2×),15 mmHg and 16 mmHg and 18 mmHg (2×),49.5 ± 5.80 mmHg,47.5 ± 5.80 mmHg,48.2 ± 5.90 mmHg,49.5 ± 5.68 mmHg,49.0 ± 5.71 mmHg,48.7 ± 6.13 mmHg,"Effect on intraocular pressure in rabbits with normal pressure, in words [1, 4]: neither the verapamil formulation nor the diltiazem formulation, both using the same vehicle as MEG 01, did produce any intraocular pressure decrease; Effect on intraocular pressure in rabbits with ocular hypertension, in words [2, 4]: do not show any significant reduction; Intraocular pressure (mmHg) at the time (min): 0, average ± S.D. [2]: 49.0 ± 5.71 mmHg; Intraocular pressure (mmHg) at the time (min): 30 [2]: 55 mmHg and 53 mmHg and 48 mmHg and 42 mmHg; Intraocular pressure (mmHg) at the time (min): 60 [2]: 53 mmHg and 51 mmHg and 46 mmHg and 40 mmHg; Intraocular pressure (mmHg) at the time (min): 90 [2]: 54 mmHg and 52 mmHg and 46 mmHg and 41 mmHg; Intraocular pressure (mmHg) at the time (min): 120 [2]: 56 mmHg and 52 mmHg and 47 mmHg and 43 mmHg; Intraocular pressure (mmHg) at the time (min): 180 [2]: 56 mmHg and 51 mmHg and 48 mmHg and 43 mmHg; Intraocular pressure (mmHg) at the time (min): 240 [2]: 55 mmHg and 52 mmHg and 47 mmHg and 41 mmHg; Intraocular pressure (mmHg) at the time (min): 0 [2]: 55 mmHg and 52 mmHg and 47 mmHg and 42 mmHg; IC50 (σ-1 receptors): > 10 µM; Intraocular pressure after topical administration to rabbits (intraocular pressure): did not detect any significant effect"
COC(=O)C1=C(C)NC(C)=C(C(=O)OC)C1c1ccccc1[N+](=O)[O-] [nifedipine],14.7 ± 1.2 mmHg,13.7 ± 0.9 mmHg,15.5 ± 0.6 mmHg,16.0 ± 1.5 mmHg,16.5 ± 1.7 mmHg,16 ± 0 mmHg,15.7 ± 1.7 mmHg,15 mmHg (2×) and 13 mmHg and 16 mmHg,14 mmHg and 13 mmHg (2×) and 15 mmHg,16 mmHg (2×) and 15 mmHg (2×),16 mmHg,17 mmHg (2×) and 15 mmHg (2×),17 mmHg (2×) and 14 mmHg and 18 mmHg,16 mmHg and 15 mmHg and 14 mmHg and 18 mmHg,47.7 ± 7.18 mmHg,46.75 ± 6.13 mmHg,46.5 ± 6.19 mmHg,47.0 ± 5.47 mmHg,48.00 ± 4.98 mmHg,48.00 ± 4.96 mmHg,"Intraocular pressure (mmHg) at the time (min): 0, average ± S.D. [2]: 48.0 ± 5.47 mmHg; Intraocular pressure (mmHg) at the time (min): 30 [2]: 55 mmHg and 52 mmHg and 45 mmHg and 39 mmHg; Intraocular pressure (mmHg) at the time (min): 60 [2]: 53 mmHg and 50 mmHg and 45 mmHg and 39 mmHg; Intraocular pressure (mmHg) at the time (min): 90 [2]: 52 mmHg and 50 mmHg and 46 mmHg and 38 mmHg; Intraocular pressure (mmHg) at the time (min): 120 [2]: 53 mmHg and 49 mmHg and 46 mmHg and 40 mmHg; Intraocular pressure (mmHg) at the time (min): 180 [2]: 54 mmHg and 48 mmHg and 45 mmHg and 41 mmHg; Intraocular pressure (mmHg) at the time (min): 240 [2]: 54 mmHg and 49 mmHg and 47 mmHg and 42 mmHg; Intraocular pressure (mmHg) at the time (min): 0 [2]: 54 mmHg and 50 mmHg and 47 mmHg and 41 mmHg; IC50 (σ-1 receptors): > 10 µM; Corneal swelling / alteration of corneal thickness, in words [3]: No significant effect"
